Assay results published in ChEMBL document CHEMBL2413017, “Identification of novel HDAC inhibitors through cell based screening and their evaluation as potential anticancer agents” (Bioorg Med Chem Lett, 2013).
One block for each compound: values may come before it. The source made the active and inactive calls. No cut-off for these calls is given here.

Columns and labels:
SK-OV-3 = assay: Cytotoxicity against human SKOV3 cells; type: functional, cell-based
[1] = Cytotoxicity against human MiaPaCa cells; type: functional, cell-based; conditions: MIA PaCa-2
MIA PaCa-2 [2] = assay: Antitumor activity against human MIAPaCa2 cells xenografted in Ncr mouse assessed as tumor growth inhibition at 80 mg/kg, ip administered daily for 22 days measured on day 25 relative to vehicle-treated control; type: functional, organism-based; design: dose 80 mg/kg
Histone deacetylase 5 = Histone deacetylase 5 (Homo sapiens, UniProt Q9UQL6); assay: Inhibition of HDAC5 (unknown origin)
Histone deacetylase 5, sequence (Q9UQL6 whole entry): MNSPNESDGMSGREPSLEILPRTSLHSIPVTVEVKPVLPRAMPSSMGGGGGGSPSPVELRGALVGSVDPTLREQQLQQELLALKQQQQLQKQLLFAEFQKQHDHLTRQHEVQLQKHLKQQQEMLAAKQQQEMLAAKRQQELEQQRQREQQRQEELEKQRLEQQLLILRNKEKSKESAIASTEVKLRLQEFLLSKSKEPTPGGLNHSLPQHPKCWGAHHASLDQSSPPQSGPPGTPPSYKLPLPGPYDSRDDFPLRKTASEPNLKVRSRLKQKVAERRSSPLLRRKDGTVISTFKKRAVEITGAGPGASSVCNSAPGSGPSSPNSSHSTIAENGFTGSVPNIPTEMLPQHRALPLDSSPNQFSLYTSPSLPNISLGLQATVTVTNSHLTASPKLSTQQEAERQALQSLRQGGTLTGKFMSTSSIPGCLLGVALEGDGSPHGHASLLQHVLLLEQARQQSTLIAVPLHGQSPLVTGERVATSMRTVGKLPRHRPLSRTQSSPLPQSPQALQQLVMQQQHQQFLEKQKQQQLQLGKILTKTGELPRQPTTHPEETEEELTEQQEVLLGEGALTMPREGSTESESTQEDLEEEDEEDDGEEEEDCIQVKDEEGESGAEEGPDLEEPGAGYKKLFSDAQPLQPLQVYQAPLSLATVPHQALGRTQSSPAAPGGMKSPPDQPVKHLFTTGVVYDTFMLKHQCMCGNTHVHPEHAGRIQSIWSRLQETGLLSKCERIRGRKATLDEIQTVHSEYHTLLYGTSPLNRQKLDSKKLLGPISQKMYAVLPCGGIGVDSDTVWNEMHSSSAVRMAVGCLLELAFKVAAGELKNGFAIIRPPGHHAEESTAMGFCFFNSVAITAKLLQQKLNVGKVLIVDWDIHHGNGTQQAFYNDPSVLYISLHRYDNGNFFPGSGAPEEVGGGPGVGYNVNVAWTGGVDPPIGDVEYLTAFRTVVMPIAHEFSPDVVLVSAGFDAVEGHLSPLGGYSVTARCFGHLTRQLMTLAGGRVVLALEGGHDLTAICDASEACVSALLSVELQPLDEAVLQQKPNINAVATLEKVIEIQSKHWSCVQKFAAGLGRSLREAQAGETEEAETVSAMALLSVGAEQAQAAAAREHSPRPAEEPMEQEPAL

NCI-H69 [3] = assay: Cytotoxicity against human H69 cells; type: functional, cell-based
[4] = Cytotoxicity against human SNU880 cells; type: functional, cell-based
MIA PaCa-2 [5] = assay: Antitumor activity against human MIAPaCa2 cells xenografted in Ncr mouse assessed as tumor growth inhibition at 100 mg/kg, po administered daily for 22 days measured on day 22 relative to vehicle-treated control; type: functional; conditions: MIA PaCa-2, 528 h, read-out: TGI
Histone deacetylase 1 = Histone deacetylase 1 (Homo sapiens, UniProt Q13547); assay: Inhibition of HDAC1 (unknown origin)
Histone deacetylase 1, sequence (Q13547 whole entry): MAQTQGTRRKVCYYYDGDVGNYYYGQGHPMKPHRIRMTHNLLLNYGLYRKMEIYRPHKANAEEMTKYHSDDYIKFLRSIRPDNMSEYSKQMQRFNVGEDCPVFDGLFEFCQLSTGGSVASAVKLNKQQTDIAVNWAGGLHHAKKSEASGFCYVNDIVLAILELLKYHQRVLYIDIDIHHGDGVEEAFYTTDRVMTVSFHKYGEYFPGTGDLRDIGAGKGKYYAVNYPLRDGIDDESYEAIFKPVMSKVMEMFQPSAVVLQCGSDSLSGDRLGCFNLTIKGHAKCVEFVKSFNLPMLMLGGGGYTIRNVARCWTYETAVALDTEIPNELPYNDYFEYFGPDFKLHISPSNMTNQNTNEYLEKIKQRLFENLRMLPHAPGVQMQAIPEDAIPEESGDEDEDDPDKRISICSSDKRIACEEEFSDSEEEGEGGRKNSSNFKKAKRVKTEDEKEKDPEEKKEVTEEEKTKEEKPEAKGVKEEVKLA

[6] = biological target: T1, Protein deacetylase HDAC6 (Homo sapiens, UniProt Q9UBN7); assay: Inhibition of HDAC6 (unknown origin)
T1 sequence (Q9UBN7 whole entry): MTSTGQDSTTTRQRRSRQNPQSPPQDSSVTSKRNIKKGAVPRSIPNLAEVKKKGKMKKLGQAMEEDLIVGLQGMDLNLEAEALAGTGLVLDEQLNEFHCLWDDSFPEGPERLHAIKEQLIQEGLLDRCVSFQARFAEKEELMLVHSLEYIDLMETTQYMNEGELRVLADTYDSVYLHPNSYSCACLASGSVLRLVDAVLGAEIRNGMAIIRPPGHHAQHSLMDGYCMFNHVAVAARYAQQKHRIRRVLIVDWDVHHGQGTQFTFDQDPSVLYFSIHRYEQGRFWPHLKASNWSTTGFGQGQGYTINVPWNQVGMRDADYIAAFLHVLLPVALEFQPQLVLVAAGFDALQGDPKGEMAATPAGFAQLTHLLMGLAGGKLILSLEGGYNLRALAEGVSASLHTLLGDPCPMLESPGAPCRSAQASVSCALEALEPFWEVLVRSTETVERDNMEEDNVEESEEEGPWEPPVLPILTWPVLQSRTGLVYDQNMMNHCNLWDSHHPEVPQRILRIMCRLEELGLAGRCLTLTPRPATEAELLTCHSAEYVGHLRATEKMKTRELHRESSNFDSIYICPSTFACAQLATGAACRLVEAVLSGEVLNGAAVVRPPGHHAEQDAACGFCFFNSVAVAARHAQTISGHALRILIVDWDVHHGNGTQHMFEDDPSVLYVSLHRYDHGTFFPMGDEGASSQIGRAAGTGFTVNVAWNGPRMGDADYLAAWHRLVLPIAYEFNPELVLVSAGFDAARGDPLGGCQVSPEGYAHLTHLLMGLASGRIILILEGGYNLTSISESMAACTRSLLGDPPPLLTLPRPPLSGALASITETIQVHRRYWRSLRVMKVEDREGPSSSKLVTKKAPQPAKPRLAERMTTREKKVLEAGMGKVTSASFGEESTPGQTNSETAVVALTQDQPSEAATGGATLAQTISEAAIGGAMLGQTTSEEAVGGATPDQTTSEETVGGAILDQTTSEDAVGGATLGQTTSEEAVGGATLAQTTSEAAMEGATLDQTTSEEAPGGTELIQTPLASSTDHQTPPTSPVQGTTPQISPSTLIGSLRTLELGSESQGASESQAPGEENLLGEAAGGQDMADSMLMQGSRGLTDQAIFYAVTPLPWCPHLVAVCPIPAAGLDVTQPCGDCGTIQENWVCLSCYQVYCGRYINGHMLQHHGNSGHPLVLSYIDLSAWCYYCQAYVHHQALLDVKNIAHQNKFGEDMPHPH

A2780 = assay: Cytotoxicity against human A2780 cells; type: functional, cell-based
NCI-H295R = assay: Cytotoxicity against human NCI-H295R cells; type: functional, cell-based
Histone deacetylase 9 = Histone deacetylase 9 (Homo sapiens, UniProt Q9UKV0); assay: Inhibition of HDAC9 (unknown origin)
Histone deacetylase 9, sequence (Q9UKV0 whole entry): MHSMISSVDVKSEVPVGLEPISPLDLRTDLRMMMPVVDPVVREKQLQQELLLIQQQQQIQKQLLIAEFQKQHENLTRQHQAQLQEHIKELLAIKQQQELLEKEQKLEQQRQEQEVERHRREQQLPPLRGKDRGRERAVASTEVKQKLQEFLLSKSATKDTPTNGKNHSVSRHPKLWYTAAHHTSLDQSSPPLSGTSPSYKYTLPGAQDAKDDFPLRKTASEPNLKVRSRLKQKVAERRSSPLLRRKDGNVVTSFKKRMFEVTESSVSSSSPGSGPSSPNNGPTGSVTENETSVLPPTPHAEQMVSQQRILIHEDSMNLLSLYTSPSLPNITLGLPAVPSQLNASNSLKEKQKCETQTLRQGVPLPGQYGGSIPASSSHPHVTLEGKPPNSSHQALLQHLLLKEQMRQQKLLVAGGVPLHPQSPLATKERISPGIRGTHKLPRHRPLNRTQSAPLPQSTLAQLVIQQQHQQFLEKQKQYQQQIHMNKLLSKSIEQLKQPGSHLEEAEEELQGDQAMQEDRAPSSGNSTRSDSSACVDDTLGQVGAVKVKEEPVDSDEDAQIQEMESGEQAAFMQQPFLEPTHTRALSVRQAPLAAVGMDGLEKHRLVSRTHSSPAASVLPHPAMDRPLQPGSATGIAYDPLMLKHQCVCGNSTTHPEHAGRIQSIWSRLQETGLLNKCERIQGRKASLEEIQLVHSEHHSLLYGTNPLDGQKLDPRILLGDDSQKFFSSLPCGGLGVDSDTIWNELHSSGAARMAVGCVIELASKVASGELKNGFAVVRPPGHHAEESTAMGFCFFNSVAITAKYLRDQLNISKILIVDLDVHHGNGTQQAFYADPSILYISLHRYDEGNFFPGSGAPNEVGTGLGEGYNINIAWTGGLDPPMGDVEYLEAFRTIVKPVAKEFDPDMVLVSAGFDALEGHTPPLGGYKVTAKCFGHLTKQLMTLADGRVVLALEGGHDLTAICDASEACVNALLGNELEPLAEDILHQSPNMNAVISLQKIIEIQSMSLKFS

[7] = Cytotoxicity against human MV522 cells; type: functional, cell-based
NCI-H69 [8] = assay: Cytotoxicity against […] expressing human H69 cells; type: functional, cell-based
Histone deacetylase 2 = Histone deacetylase 2 (Homo sapiens, UniProt Q92769); assay: Inhibition of HDAC2 (unknown origin)
Histone deacetylase 2, sequence (Q92769 whole entry): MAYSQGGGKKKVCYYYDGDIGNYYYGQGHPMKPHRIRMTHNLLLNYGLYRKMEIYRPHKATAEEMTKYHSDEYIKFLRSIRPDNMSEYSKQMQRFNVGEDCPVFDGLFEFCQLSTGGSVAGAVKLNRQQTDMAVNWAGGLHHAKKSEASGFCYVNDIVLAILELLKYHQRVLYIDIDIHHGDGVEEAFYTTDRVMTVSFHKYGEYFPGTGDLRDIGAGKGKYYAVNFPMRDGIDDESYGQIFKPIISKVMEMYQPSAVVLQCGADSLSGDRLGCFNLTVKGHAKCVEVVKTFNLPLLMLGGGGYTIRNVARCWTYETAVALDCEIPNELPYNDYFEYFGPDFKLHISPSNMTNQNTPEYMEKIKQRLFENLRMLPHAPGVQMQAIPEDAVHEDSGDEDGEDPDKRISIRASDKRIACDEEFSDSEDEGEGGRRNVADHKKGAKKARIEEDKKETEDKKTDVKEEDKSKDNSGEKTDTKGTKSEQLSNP

Histone deacetylase 3 = Histone deacetylase 3 (Homo sapiens, UniProt O15379); assay: Inhibition of HDAC3 (unknown origin)
Histone deacetylase 3, sequence (O15379 whole entry): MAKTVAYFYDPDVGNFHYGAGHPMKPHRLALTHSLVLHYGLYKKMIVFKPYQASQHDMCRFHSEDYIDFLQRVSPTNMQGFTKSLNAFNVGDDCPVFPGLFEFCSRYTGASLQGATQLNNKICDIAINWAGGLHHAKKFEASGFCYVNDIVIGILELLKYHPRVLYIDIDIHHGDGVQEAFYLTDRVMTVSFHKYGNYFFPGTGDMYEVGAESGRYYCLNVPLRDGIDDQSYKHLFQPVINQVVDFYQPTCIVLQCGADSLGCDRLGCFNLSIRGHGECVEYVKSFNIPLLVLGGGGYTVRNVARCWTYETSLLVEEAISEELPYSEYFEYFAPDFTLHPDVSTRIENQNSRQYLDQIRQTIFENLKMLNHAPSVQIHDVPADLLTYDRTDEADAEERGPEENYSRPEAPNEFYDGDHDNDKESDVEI

Histone deacetylase 11 = biological target: T2, Histone deacetylase 11 (Homo sapiens, UniProt Q96DB2); assay: Inhibition of HDAC11 (unknown origin)
T2 sequence (Q96DB2 whole entry): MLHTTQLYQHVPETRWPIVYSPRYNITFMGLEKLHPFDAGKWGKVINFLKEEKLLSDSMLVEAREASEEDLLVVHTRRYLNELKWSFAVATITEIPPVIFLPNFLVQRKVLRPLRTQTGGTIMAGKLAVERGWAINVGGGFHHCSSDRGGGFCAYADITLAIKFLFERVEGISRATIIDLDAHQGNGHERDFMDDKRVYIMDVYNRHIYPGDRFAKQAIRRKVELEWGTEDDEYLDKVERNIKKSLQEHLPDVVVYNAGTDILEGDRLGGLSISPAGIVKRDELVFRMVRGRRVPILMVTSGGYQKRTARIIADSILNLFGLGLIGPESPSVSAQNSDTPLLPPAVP

Histone deacetylase 8 = biological target: T3, Histone deacetylase 8 (Homo sapiens, UniProt Q9BY41); assay: Inhibition of HDAC8 (unknown origin)
T3 sequence (Q9BY41 whole entry): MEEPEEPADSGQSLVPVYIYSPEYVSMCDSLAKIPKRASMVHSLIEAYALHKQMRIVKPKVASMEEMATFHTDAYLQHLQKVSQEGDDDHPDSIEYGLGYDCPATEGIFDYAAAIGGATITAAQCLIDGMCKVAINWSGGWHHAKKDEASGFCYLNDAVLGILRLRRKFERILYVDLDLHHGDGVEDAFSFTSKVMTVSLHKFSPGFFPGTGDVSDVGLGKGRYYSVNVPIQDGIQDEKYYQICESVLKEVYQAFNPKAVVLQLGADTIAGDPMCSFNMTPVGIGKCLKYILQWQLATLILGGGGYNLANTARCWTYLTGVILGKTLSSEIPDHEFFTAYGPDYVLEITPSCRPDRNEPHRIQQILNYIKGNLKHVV

MDA-MB-231 = assay: Cytotoxicity against human MDA-MB-231 cells; type: functional, cell-based
[9] = Cytotoxicity against human A2780C/P cells; type: functional, cell-based
[10] = Cytotoxicity against human MIHA cells; type: functional, cell-based
Mus musculus = assay: Toxicity in human MiaPaCa2 cells xenografted Ncr mouse at 50 to 100 mg/kg, po administered daily for 22 days; type: organism-based; design: dose 50-100 mg/kg, route oral; conditions: in vivo, 528 h
[11] = Cytotoxicity against human Hep3B cells; type: functional, cell-based, Hep 3B2
[12] = biological target: T4, Polyamine deacetylase HDAC10 (Homo sapiens, UniProt Q969S8); assay: Inhibition of HDAC10 (unknown origin)
T4 sequence (Q969S8 whole entry): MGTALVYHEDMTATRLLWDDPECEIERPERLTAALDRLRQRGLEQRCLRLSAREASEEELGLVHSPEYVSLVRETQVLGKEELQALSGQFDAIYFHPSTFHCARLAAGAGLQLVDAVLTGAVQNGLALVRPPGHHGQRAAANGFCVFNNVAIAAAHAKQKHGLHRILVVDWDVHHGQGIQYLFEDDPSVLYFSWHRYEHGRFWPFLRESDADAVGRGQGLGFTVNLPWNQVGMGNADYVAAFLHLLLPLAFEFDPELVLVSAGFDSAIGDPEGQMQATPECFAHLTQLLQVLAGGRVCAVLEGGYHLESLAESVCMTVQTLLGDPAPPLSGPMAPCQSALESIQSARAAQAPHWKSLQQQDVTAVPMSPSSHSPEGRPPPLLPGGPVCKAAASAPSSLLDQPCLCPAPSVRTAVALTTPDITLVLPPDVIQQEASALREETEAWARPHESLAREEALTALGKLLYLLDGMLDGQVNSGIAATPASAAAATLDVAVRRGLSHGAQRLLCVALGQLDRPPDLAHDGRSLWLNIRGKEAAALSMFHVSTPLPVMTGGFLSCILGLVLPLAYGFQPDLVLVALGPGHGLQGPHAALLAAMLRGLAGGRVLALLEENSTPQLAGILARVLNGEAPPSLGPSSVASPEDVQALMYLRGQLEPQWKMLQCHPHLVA

[13] = Cytotoxicity against human VCaP cells; type: functional, cell-based
Histone deacetylase 4 = Histone deacetylase 4 (Homo sapiens, UniProt P56524); assay: Inhibition of HDAC4 (unknown origin)
Histone deacetylase 4, sequence (P56524 whole entry): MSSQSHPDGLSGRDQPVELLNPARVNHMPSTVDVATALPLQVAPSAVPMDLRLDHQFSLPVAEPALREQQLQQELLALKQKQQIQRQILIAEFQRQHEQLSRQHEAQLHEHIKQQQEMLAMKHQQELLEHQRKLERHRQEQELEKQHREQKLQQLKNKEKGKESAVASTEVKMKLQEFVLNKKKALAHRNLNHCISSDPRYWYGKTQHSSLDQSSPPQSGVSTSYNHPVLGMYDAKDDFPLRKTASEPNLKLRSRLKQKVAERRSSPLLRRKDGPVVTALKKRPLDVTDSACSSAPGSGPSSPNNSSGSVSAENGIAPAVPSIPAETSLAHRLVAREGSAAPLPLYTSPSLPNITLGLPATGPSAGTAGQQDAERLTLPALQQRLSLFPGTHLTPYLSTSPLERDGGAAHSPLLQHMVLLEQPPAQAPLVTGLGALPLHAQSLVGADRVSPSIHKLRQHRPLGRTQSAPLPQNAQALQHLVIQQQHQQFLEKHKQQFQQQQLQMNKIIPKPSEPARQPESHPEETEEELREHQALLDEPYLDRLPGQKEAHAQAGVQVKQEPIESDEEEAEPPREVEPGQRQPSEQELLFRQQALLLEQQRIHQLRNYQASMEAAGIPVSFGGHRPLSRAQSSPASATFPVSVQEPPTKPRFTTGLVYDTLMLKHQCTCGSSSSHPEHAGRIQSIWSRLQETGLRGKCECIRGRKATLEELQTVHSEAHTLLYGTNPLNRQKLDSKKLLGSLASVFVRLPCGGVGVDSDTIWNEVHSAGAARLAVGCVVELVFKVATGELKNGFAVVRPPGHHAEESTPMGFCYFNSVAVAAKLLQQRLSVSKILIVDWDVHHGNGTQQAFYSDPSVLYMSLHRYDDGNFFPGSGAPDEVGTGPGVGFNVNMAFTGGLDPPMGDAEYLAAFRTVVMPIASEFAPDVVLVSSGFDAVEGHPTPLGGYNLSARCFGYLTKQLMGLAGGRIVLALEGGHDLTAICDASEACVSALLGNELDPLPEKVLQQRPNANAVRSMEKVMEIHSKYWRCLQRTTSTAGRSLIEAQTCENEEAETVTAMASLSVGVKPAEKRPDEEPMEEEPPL

[14] = Cytotoxicity against human H23 cells; type: functional, cell-based; conditions: NCI-H23

SMILES: O=C(CCCCCCc1nc2ccc(-c3ccc(F)cc3)cc2[nH]1)NO
IC50 (SK-OV-3): 1200 nM

SMILES: O=C(CCCCCCc1nc2ccccc2n1C1CCCC1)NO
IC50 (SK-OV-3): 4800 nM

SMILES: O=C(CCCCCCC(=O)Nc1ccccc1)NO [VORINOSTAT]
IC50 (SK-OV-3): 2300 nM
IC50 [1]: 2300 nM

SMILES: O=C(CCCCCCc1nc2ccccc2n1C1CC1)NO
IC50 (SK-OV-3): 9500 nM

SMILES: CN(C)c1ccc2nc(CCCCCCC(=O)NO)[nH]c2c1
IC50 (SK-OV-3): 1200 nM

SMILES: O=C(CCCCCCc1nc2ccccc2[nH]1)NO
IC50 (SK-OV-3): 2700 nM

SMILES: O=C(CCCCCCc1nc2ccc(-c3ccccc3)cc2[nH]1)NO
IC50 (SK-OV-3): 100 nM

SMILES: Cn1c(CCCCCCC(=O)NO)nc2ccccc21
IC50 (SK-OV-3): 3000 nM

SMILES: O=C(CCCCCCc1nc2ccccc2n1-c1ccccc1)NO
IC50 (SK-OV-3): > 20000 nM

SMILES: CN(C)c1ccc(-c2ccc3nc(CCCCCCC(=O)NO)[nH]c3c2)cc1
IC50 (SK-OV-3): 6600 nM

SMILES: O=C(CCCCCCc1nc2ccc(F)cc2[nH]1)NO
IC50 (SK-OV-3): 1900 nM

SMILES: O=C(CCCCCCc1nc2cccc(Cl)c2[nH]1)NO
IC50 (SK-OV-3): 10000 nM

SMILES: O=C(CCCCCCc1nc2ccc(-c3cncnc3)cc2[nH]1)NO
IC50 (SK-OV-3): 2600 nM

SMILES: O=C(CCCCCc1nc2ccccc2[nH]1)NO
IC50 (SK-OV-3): 11000 nM

SMILES: Nc1ccn([C@@H]2O[C@H](CO)[C@@H](O)C2(F)F)c(=O)n1
TGI (MIA PaCa-2 [2]): Active

IC50 (Histone deacetylase 5): 2.5 nM
IC50 (Histone deacetylase 1): 20.2 nM
IC50 [6]: 1.9 nM
IC50 (Histone deacetylase 9): 1.1 nM
IC50 (Histone deacetylase 2): 34.1 nM
IC50 (Histone deacetylase 3): 6.4 nM
IC50 (Histone deacetylase 11): 33.4 nM
IC50 (Histone deacetylase 8): 282 nM
IC50 [12]: 3 nM
IC50 (Histone deacetylase 4): 279 nM
SMILES: O=C(CCCCCCc1nc2ccc(Br)cc2[nH]1)NO
IC50 (NCI-H69 [3]): 150 nM
IC50 [4]: 980 nM
inhibition in vivo at 100 mg/kg (MIA PaCa-2 [5]): 74%
IC50 (A2780): 1900 nM
IC50 (NCI-H295R): 180 nM
IC50 [7]: 2200 nM
IC50 (NCI-H69 [8]): 170 nM
IC50 (SK-OV-3): 260 nM
IC50 (MDA-MB-231): 820 nM
IC50 [9]: 2000 nM
IC50 [10]: 230 nM
Activity (Mus musculus): Non-toxic
IC50 [11]: 610 nM
IC50 [13]: 2400 nM
IC50 [1]: 89 nM
IC50 [14]: 560 nM

SMILES: COc1ccc2nc(CCCCCCC(=O)NO)[nH]c2c1
IC50 (SK-OV-3): 11000 nM

SMILES: O=C(CCCCCCc1nc2ccc(-c3ccccc3F)cc2[nH]1)NO
IC50 (SK-OV-3): 7400 nM

SMILES: O=C(CCCCCCc1nc2ccncc2[nH]1)NO
IC50 (SK-OV-3): > 20000 nM

SMILES: O=C(CCCCCCc1nc2ccc(Cl)cc2[nH]1)NO
IC50 (SK-OV-3): 320 nM

SMILES: O=C(CCCCCCc1nc2ccc(-c3cccc(F)c3)cc2[nH]1)NO
IC50 (SK-OV-3): 1500 nM

SMILES: COc1ccc(-c2ccc3nc(CCCCCCC(=O)NO)[nH]c3c2)cc1
IC50 (SK-OV-3): 3100 nM
